From patent EP4501112A1, “PLANT DEFENSE ELICITORS” (Globachem NV, priority 2023, dated 2025)
Where two headings read alike, the source gives them in different places.

How the values were obtained:
[1] = system: Root knot nematode (Meloidogyne graminicola); assay: Root knot nematode gall development on wheat roots after treatment; assay type: in vivo; conditions: foliar spraying, stock solution 200 x diluted; 400 J2 per plant 24 hours after treatment; 14 days after inoculation
Method: DISEASE/PEST: Root knot nematode (Meloidogyne graminicola) CROP: Triticum aestivum APPLICATION: Foliar application EXPERIMENT/TRIAL PROTOCOL: After seed germination, wheat plants were grown individually for 2 weeks in a PVC tube (18 cm height, 3 cm diameter) filled with a substrate of sand and a water-absorbing polymer (DCM Aquaperla). Plants were grown at 24 °C and supplied with Hoagland solution and water 3 times per week. They were treated after 2 weeks. Twenty-four hours after treatment they were inoculated with 400 nematode juveniles (second stage; J2) per plant. 8 individual plants were analyzed per treatment. Evaluation of nematode infection was done 14 days after inoculation. Development of galls on the roots was microscopically observed and counted. No females were observed yet at this early time point, in any of the treatments. The number of galls was reduced in the […], pelargonic acid ([…] decanoic acid (pm4) treated plants. Azelaic acid (pm3) had no effect on gall numbers in the used concentration. FORMULATION USED: […] PM1 is already formulated.

[2] = system: Leptosphaeria maculans; assay: Seed treatment lab trial against Leptosphaeria maculans in oilseed rape seedlings; assay type: in vivo; conditions: Plenodomus lingam, in Brassica napus, 144 h, 6 days after inoculation, read-out: % Efficacy
From the text: [table] Table 8: Efficacy assessment of fatty acids in seed treatment of Leptosphaeria maculans in oilseed rape (variety Helga)

[3] = system: Plutella xylostella; assay: P. xylostella survival and leaf damage on untreated leaves after treating one leaf of Chinese cabbage; assay type: in vivo; design: key to P. xylostella leaf damage: 0=no damage or no sucking observed; 1=some damage or some sucking observed; 3=half leaf eaten or half of aphids sucking the leaf; 5=no leaf left or all insects sucking and reproducing; conditions: for P. xylostella leaf damage: damage scale 0 - 5
Method: DISEASE/PEST: Plutella xylostella / Myzus persicae CROP: Chinese cabbage (Brassica rapa subsp. Pekinensis) APPLICATION: FOLIAR on one leaf of the plant EXPERIMENT/TRIAL PROTOCOL: […] Leaves were left to dry for 1 hour. P. xylostella or M. persicae were added to clip cages on non-treated leaves 1 hour or 24 hours after the applied treatment wherein those cages restrict the movement of the insects to the other leaves. Table 2. Effect on survival and leaf damage of P. xylostella and […] on untreated leaves of […].

[4] = system: Maize (cultivar Mofox); assay: Abiotic stress (flooding, drought, daily watered) growth trial on maize, foliar treatment
[5] = system: Fusarium culmorum; assay: whole plant or invertebrate; assay type: in vivo; conditions: Fusarium culmorum, in Triticum aestivum, 144 h, read-out: % Efficacy
[6] = system: Puccinia triticina; assay: Greenhouse trial, foliar treatment against PUCCTR in wheat
[7] = system: S. exigua; assay: Direct feeding of pelargonic acid (comparative example 1c); assay type: in vivo; conditions: Table 3 is an image
From the text: Example 1c. Direct effect pelargonic acid (Comparative example) [table]

[8] = system: Phytophthora infestans (PHYTIN); assay: whole plant or invertebrate; assay type: in vivo; conditions: in Solanum tuberosum, foliar
[9] = system: Puccinia triticina (PUCCTR); assay: Greenhouse trial, seed treatment against PUCCTR in wheat; assay type: in vivo
From the text: [table] Table 9. Efficacy assessment of pelargonic acid as seed treatment of PUCCTR in wheat (variety Benchmark)

[10] = daily watered (normal) conditions, foliar 65 g/ha
[11] = daily watered (normal) conditions, foliar 325 g/ha
[12] = daily watered (normal) conditions, foliar 650 g/ha
[13] = daily watered (normal) conditions, foliar 1300 g/ha
[14] = drought conditions, foliar 65 g/ha
[15] = drought conditions, foliar 325 g/ha
[16] = drought conditions, foliar 650 g/ha
[17] = drought conditions, foliar 1300 g/ha
[18] = flooding conditions, foliar 65 g/ha
[19] = flooding conditions, foliar 325 g/ha
[20] = flooding conditions, foliar 650 g/ha
[21] = flooding conditions, foliar 1300 g/ha
[22] = seed treatment 3.8 g ai/ton, 11 dai
[23] = seed treatment 7.6 g ai/ton, 11 dai
[24] = seed treatment 38 g ai/ton, 11 dai
[25] = seed treatment 76 g ai/ton, 21 dai

CCCCCCCCC(=O)O [Pelargonic acid, pelargonic acid]
number of galls [1]: reduced | Emax ([2]; seed treatment 0.76 g/ton, % healthy plants vs infected seedlings): 100% | Emax ([2]; seed treatment 3.04 g/ton): 80% | Emax ([2]; seed treatment 6.08 g/ton): 80% | Emax ([2]; seed treatment 7.60 g/ton): 100% | P. xylostella leaf damage ([3]; 0.78 mg on one leaf, insects added 1h after treatment, 6 DAT): 1 | P. xylostella leaf damage ([3]; 0.78 mg on one leaf, insects added 1h after treatment, 24h AT): 1 | P. xylostella leaf damage ([3]; 0.78 mg on one leaf, insects added 24 h after treatment, 6 DAT): 5 | P. xylostella leaf damage ([3]; 0.78 mg on one leaf, insects added 24 h after treatment, 24h AT): 4 | P. xylostella survival ([3]; 0.78 mg on one leaf, insects on non-treated leaves, added 1h after treatment, 6 DAT): growth limited to L3 stage | larval maturation and leaf damage in P. xylostella ([3]; 0.78mg, insects introduced 1h after treatment to an untreated leaf of the same plant): reduction | % total growth to control [4, 10]: 71% | ASSESSMENT total growth after 15 days (cm) [4, 10]: 18.4 cm | % total growth to control [4, 11]: 87% | ASSESSMENT total growth after 15 days (cm) [4, 11]: 22.5 cm | % total growth to control [4, 12]: 95% | ASSESSMENT total growth after 15 days (cm) [4, 12]: 24.8 cm | % total growth to control [4, 13]: 78% | ASSESSMENT total growth after 15 days (cm) [4, 13]: 20.3 cm | % total growth to control [4, 14]: 87% | ASSESSMENT total growth after 15 days (cm) [4, 14]: 17.4 cm | % total growth to control [4, 15]: 87% | ASSESSMENT total growth after 15 days (cm) [4, 15]: 17.6 cm | % total growth to control [4, 16]: 112% | ASSESSMENT total growth after 15 days (cm) [4, 16]: 22.2 cm | % total growth to control [4, 17]: 91% | ASSESSMENT total growth after 15 days (cm) [4, 17]: 18.2 cm | % total growth to control [4, 18]: 104% | ASSESSMENT total growth after 15 days (cm) [4, 18]: 26.3 cm | % total growth to control [4, 19]: 104% | ASSESSMENT total growth after 15 days (cm) [4, 19]: 26.1 cm | % total growth to control [4, 20]: 90% | ASSESSMENT total growth after 15 days (cm) [4, 20]: 22.6 cm | % total growth to control [4, 21]: 82% | ASSESSMENT total growth after 15 days (cm) [4, 21]: 20.7 cm | Emax [5]: 100% | EFFICACY % ALL LEAV ES ([6]; foliar 1.52 g ai/ha, 13 dai): 18.6% | EFFICACY % LEAF 1 ([6]; foliar 1.52 g ai/ha, 13 dai): 50.0% | EFFICACY % LEAF 2 ([6]; foliar 1.52 g ai/ha, 13 dai): 5.9% | EFFICACY % LEAF 3 ([6]; foliar 1.52 g ai/ha, 13 dai): 5.9% | EFFICACY % LEAF 4 ([6]; foliar 1.52 g ai/ha, 13 dai): 12.5% | EFFICACY % ALL LEAV ES ([6]; foliar 7.6 g ai/ha, 21 dai): 23.6% | EFFICACY % LEAF 1 ([6]; foliar 7.6 g ai/ha, 21 dai): 28.6% | EFFICACY % LEAF 2 ([6]; foliar 7.6 g ai/ha, 21 dai): 17.9% | EFFICACY % LEAF 3 ([6]; foliar 7.6 g ai/ha, 21 dai): 29.8% | EFFICACY % LEAF 4 ([6]; foliar 7.6 g ai/ha, 21 dai): 18.3% | EFFICACY % ALL LEAV ES ([6]; foliar 95 g ai/ha, 13 dai): 11.3% | EFFICACY % LEAF 1 ([6]; foliar 95 g ai/ha, 13 dai): 33.3% | EFFICACY % LEAF 2 ([6]; foliar 95 g ai/ha, 13 dai): 0.0% | EFFICACY % LEAF 3 ([6]; foliar 95 g ai/ha, 13 dai): 11.8% | EFFICACY % LEAF 4 ([6]; foliar 95 g ai/ha, 13 dai): 0,0% | EFFICACY % ALL LEAV ES ([6]; foliar 760 g ai/ha, 13 dai): 30.5% | EFFICACY % LEAF 1 ([6]; foliar 760 g ai/ha, 13 dai): 66.7% | EFFICACY % LEAF 2 ([6]; foliar 760 g ai/ha, 13 dai): 11.8% | EFFICACY % LEAF 3 ([6]; foliar 760 g ai/ha, 13 dai): 0.0% | EFFICACY % LEAF 4 ([6]; foliar 760 g ai/ha, 13 dai): 43.8% | direct control of S. exigua [7]: no direct control | % efficacy ([8]; read-out: ASSESSMENT 7 DAI (% efficacy), foliar 0.76 g/ha): 0.2% | % efficacy ([8]; read-out: ASSESSMENT 7 DAI (% efficacy), foliar 1.14 g/ha): 14% | % efficacy ([8]; read-out: ASSESSMENT 7 DAI (% efficacy), foliar 1.52 g/ha): 20.1% | % efficacy ([8]; read-out: ASSESSMENT 7 DAI (% efficacy), foliar 2.66 g/ha): 23% | % efficacy ([8]; read-out: ASSESSMENT 7 DAI (% efficacy), foliar 3.80 g/ha): 18.6% | % efficacy ([8]; read-out: ASSESSMENT 7 DAI (% efficacy), foliar 5.32 g/ha): 17.7% | % efficacy ([8]; read-out: ASSESSMENT 7 DAI (% efficacy), foliar 7.60 g/ha, inoculated 7 days after treatment): 3% | % efficacy ([8]; read-out: ASSESSMENT 14 DAI (% efficacy), foliar 0.76 g/ha): 0% | % efficacy ([8]; read-out: ASSESSMENT 14 DAI (% efficacy), foliar 1.14 g/ha): 7.9% | % efficacy ([8]; read-out: ASSESSMENT 14 DAI (% efficacy), foliar 1.52 g/ha): 22% | % efficacy ([8]; read-out: ASSESSMENT 14 DAI (% efficacy), foliar 2.66 g/ha): 21.9% | % efficacy ([8]; read-out: ASSESSMENT 14 DAI (% efficacy), foliar 3.80 g/ha): 7% | % efficacy ([8]; read-out: ASSESSMENT 14 DAI (% efficacy), foliar 5.32 g/ha): 16.7% | % efficacy ([8]; read-out: ASSESSMENT 14 DAI (% efficacy), foliar 7.60 g/ha): 5.4% | EFFICACY % ALL LEAVES [9, 22]: 17.3% | EFFICACY % LEAF 1 [9, 22]: 0.0% | EFFICACY % LEAF 2 [9, 22]: 14.3% | EFFICACY % LEAF 3 [9, 22]: 17.6% | EFFICACY % LEAF 4 [9, 22]: 20.0% | EFFICACY % ALL LEAVES [9, 23]: 29.6% | EFFICACY % LEAF 1 [9, 23]: 0.0% | EFFICACY % LEAF 2 [9, 23]: 7.1% | EFFICACY % LEAF 3 [9, 23]: 11.8% | EFFICACY % LEAF 4 [9, 23]: 70.0% | EFFICACY % ALL LEAVES [9, 24]: 6.3% | EFFICACY % LEAF 1 [9, 24]: 0.0% | EFFICACY % LEAF 2 [9, 24]: 7.1% | EFFICACY % LEAF 3 [9, 24]: 11.8% | EFFICACY % LEAF 4 [9, 24]: 0.0% | EFFICACY % ALL LEAVES [9, 25]: 19.2% | EFFICACY % LEAF 1 [9, 25]: 31.8% | EFFICACY % LEAF 2 [9, 25]: 18.9% | EFFICACY % LEAF 3 [9, 25]: 12.0% | EFFICACY % LEAF 4 [9, 25]: 14.0%
